79 molecules from the METLIN SMRT retention time set (Domingo-Almenara et al. 2019) can be followed below.

The series is described as follows: gradient 5% acetonitrile 3 min, to 50% in 2 min, to 85% in 15 min, held 3 min, 100 µL/min. The note with it: column: Zorbax Extend-C18 2.1 x 50 mm; eluents: water / acetonitrile, 0.1% formic acid. In outline: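 Retention times come from adduct peaks that were picked computationally and then checked by hand. The standards, pure and pooled in mixtures of ~100 molecules, were run on a Zorbax Extend-C18 column (2.1 × 50 mm, 1.8 μm) at 100 μL/min with water and acetonitrile, each with 0.1% formic acid. Detection was by quadrupole time-of-flight mass spectrometry in positive and negative ionization mode, with a dead volume of 40 μL and a dwell volume of 900 μL.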
As to `Cc1ccc(CNC(=O)c2cc3n(n2)CC(C)(C(=O)NCc2ccc(C)cc2)N(C)C3=O)cc1` (centres undefined), the RP-LC retention time is 823 s. `C=CCNc1ncnc2sc(SC)nc12` came in with an RP-LC retention time of 855 s. Molecule `CCOC(=O)c1c(NCCc2cccs2)c2cc(Cl)ccc2[nH]c1=O` displayed an RP-LC retention time of 826 s. With `C=CCn1c(-c2ccc(OC)cc2)nc2nc3ccccc3nc21` the figure was 813 s.

For the molecule `CCn1cc(CN2CCCC(Cn3cc(COC)nn3)C2)c2cc(OC)ccc21` (centres undefined), the RP-LC retention time was determined as 637 s. To `CCOC(=O)c1ccc(NC(=O)Cn2cnc3ccccc32)cc1` belongs 594 s; to `CCn1ncc(C(=O)NCCn2c(C)cnc2C2CCC2)c1C`, 567 s; to `CC1CCN(C(=O)C2CCN(c3nc4ccc(-c5ccccc5F)nc4s3)CC2)CC1`, 1170 s. On to `O=C(CN1C(=O)NC2(CCCCC2)C1=O)Nc1cccc(Cl)c1`, for which the RP-LC retention time turned out to be 815 s. `O=C(Nc1cc(Cl)ccc1F)c1cnc(-c2ccccc2)nc1-c1ccncc1` gave an RP-LC retention time of 976 s. With `Cc1cc(NC(=O)CN2C(=O)C(C(=O)N3CCCC3)Sc3ccccc32)ccc1Br` (centres undefined) the figure was 971 s. With `CN1CCc2ccccc2C1Cc1ccccc1NC(=O)c1sc2ccccc2c1Cl` (centres undefined) the figure was 852 s; with `CCN1C(=O)COc2ccc(-c3nc(NC(=O)C(C)C)sc3C)cc21`, 909 s; with `COc1cc(OC)cc(C(=O)N2CCC3(CC2)N=C(c2ccccc2)NO3)c1`, 810 s.

With `Cn1nccc1-c1cccc(-c2noc(C3CC(=O)N(c4cccc(Cl)c4)C3)n2)c1` (centres undefined), the RP-LC retention time was determined as 978 s. In turn, `Cc1ccc(-c2cc3c4nnc(SCC(=O)Nc5cccc(C)c5C)n4ccn3n2)cc1C` gave an RP-LC retention time of 1000 s. With `CCNC(=O)NC1CCN(c2nc3cccnc3n(Cc3ccc(C)cc3)c2=O)CC1` the figure was 1010 s; with `Cc1ccn2cc(-c3ccc(NC(=O)c4ccccc4[N+](=O)[O-])cc3)nc2n1`, 622 s. With `CCOc1ccc(OCC)c(NC(=O)Cc2csc3nc(-c4ccc(OC)c(OC)c4)cn23)c1` the figure was 870 s. With `Cc1ccc2c(=O)cc(C(=O)NCC(c3ccccc3)N(C)C)oc2c1C` (centres undefined) the figure was 636 s. As to `Cc1nn(C)c(C)c1CNC(=O)C1CC(=O)N(c2n[nH]c3cccc(F)c23)C1` (centres undefined), the RP-LC retention time was 594 s. In the case of `COc1cccc(NC(=O)Cn2ncc3c(c2=O)N(CC2CC2)C(=O)CS3)c1`, the RP-LC retention time is 775 s. Consider `CCOc1ccc(C(=O)NC(C(=O)Nc2nc3ccccc3[nH]2)C(C)C)cc1OCC` (centres undefined), for which the RP-LC retention time is 735 s. To `COc1ccc(N2CC(c3nc(-c4oc5ccc(OC)cc5c4C)no3)CC2=O)cc1` (centres undefined) belongs 1020 s; to `CC1CCC2(CC1)NC(=O)N(CC(=O)NCCCc1ccccc1)C2=O` (centres undefined), 832 s; to `CCOc1ccc(C2C3=C(CCCC3=O)Nc3c2c(=O)n(C)c(=O)n3C)cc1OC` (centres undefined), 806 s.

The molecule `O=C(Cn1cnc2nc3c(cc2c1=O)CCCC3)N1CCN(c2ccccc2)CC1` displayed an RP-LC retention time of 748 s. With `CC(C)CC(C(=O)N1CCN(c2ccccn2)CC1)N1Cc2ccccc2C1=O` (centres undefined) the figure was 650 s; with `Cc1cc(C)n(Cc2nc(-c3ccc(NC(=O)C(C)C)cc3)oc2C)n1`, 816 s.

As for `COCC1CN(S(=O)(=O)c2cccc(C#N)c2)CC12CCNCC2` (centres undefined), the RP-LC retention time is 609 s.

In turn, `CC(C)NC(=O)c1nc(N2CCSCC2)c2cnn(C)c2n1` came in with an RP-LC retention time of 705 s.

In turn, `COc1ccccc1CNC(=O)Cn1c(=O)cc(-c2nc(C3CC3)no2)c2ccccc21` had an RP-LC retention time of 932 s. For the molecule `C(#Cc1ccccc1)CN1CCN(CC#Cc2ccccc2)CC1`, the RP-LC retention time was determined as 616 s. With `CCC(C)NC(=O)C1CCCN(c2ccc(-c3ccc(C)c(C)c3)nn2)C1` (centres undefined) the figure was 716 s; with `CC(C)Cn1c(=O)c2cc(C(=O)NCc3cccs3)nn2c2ccccc21`, 995 s; with `O=S(=O)(Nc1cccnc1)c1ccc(Cl)c(-c2nnc(-c3ccccc3)o2)c1`, 807 s. To `O=C(NCCC1=CCCCC1)C1CCN(c2ccncc2)CC1` belongs 638 s. Molecule `Cc1ccc2[nH]c(=O)c(CCC(=O)O)cc2c1` came in with an RP-LC retention time of 651 s. With `CCc1cc(-c2csc(S(=O)(=O)N3CC=C(c4ccccc4)CC3)c2)on1` the figure was 1170 s; with `COc1ccc2c(c1)C1(CCN(C(=O)NCCc3ccccc3)C1)C(=O)N2` (centres undefined), 750 s; with `O=C(NC(=O)c1ccccc1)OCCN1CCN(c2ncc(C(F)(F)F)cc2Cl)CC1`, 692 s.

In turn, `O=C(c1ccc2c(c1)OCO2)N1CCN(Cc2nc(C3CC3)cs2)CC1` returned an RP-LC retention time of 611 s. The molecule `COc1ccc(CNC(=O)c2ccc3[nH]c4c(c3c2)CN(C(C)=O)CC4)c(OC)c1` displayed an RP-LC retention time of 680 s.

`O=C(NCCc1nnc2ccc(SCc3ccccn3)nn12)c1ccccc1` registered an RP-LC retention time of 575 s.

`Cc1ccc(NC(=O)Cn2nc(N3CCCC(C)C3)c3ccccc3c2=O)cc1C` (centres undefined) displayed an RP-LC retention time of 1240 s. Consider `CC1(C(=O)NCc2ccccc2)CCCN(C(=O)NCc2ccccc2)C1` (centres undefined), for which the RP-LC retention time was 810 s. To `CCCOc1nc2ccccc2nc1N1CCCC(C(=O)N2CCN(c3ccc(OC)cc3)CC2)C1` (centres undefined) belongs 1280 s; to `CCOC(=O)c1c(C)[nH]c(C(=O)N2CCC(CC(=O)NCc3ccccc3C)CC2)c1C`, 802 s; to `CCc1ccc(NC(=O)Cn2c(=O)nc(N3CCCC(C)C3)c3ccccc32)cc1` (centres undefined), 905 s.

For the molecule `COc1ccccc1-c1ccc(SCc2cccc(C)c2)nn1`, the RP-LC retention time came to 1080 s.

Consider `CC(C)(C)NS(=O)(=O)c1cncc(-c2cc(F)c3nc(N)nn3c2)c1`, for which the RP-LC retention time is 750 s. With `Cc1ccc(C(=O)NCC2CC(=O)N(c3ccc(Cl)cc3)C2)cc1[N+](=O)[O-]` (centres undefined) the figure was 822 s; with `Cc1ccc(-c2noc(Cn3ncn4nc(-c5ccc(C)cc5C)cc4c3=O)n2)cc1`, 1270 s. With `COCCn1cc(CCNC(=O)Nc2c(F)cccc2F)c2cccnc21` the figure was 660 s; with `COc1ccc2c(c1)C1(CCN(S(=O)(=O)c3ccccc3)C1)C(=O)N2` (centres undefined), 771 s; with `Cc1ccc(-c2ccc(-n3nc(C)c(S(=O)(=O)Nc4ccc(F)cc4)c3C)nn2)cc1`, 1070 s.

In turn, `c1ccc(-c2cccc(-c3ccccn3)n2)nc1` returned an RP-LC retention time of 608 s.

In the case of `Cc1ccc(CNC(=O)C2(C)Cn3cnc(C(=O)NCc4ccccc4F)c3C(=O)N2C2CC2)cc1` (centres undefined), the RP-LC retention time was found to be 780 s.

With `c1ccc([C@@H]2CN(Cc3ccncc3)C[C@H]2COc2cccnc2)nc1`, the RP-LC retention time was 516 s. To `Cc1nc(OCC(=O)NCc2ccccc2)c2ccccc2n1` belongs 621 s. Take `COc1ccc(Nc2c(-c3ccc(SC)cc3)nc3cnc(Br)cn23)cc1OC`: the RP-LC retention time is 934 s.

`O=C(NCCc1c[nH]c2ccc(Cl)cc12)c1cc2n(n1)CCCN(Cc1ccc(F)cc1)C2=O` displayed an RP-LC retention time of 927 s. Molecule `COCc1noc(C2CCCCN2CC(=O)Nc2nccs2)n1` (centres undefined) gave an RP-LC retention time of 720 s. To `Cc1cc(Nc2ccc(NC(=O)Cc3cccs3)cc2)nc(N2CCCC2)n1` belongs 595 s; to `Cc1ccccc1CNC(=O)C1CCCN(S(=O)(=O)c2c[nH]c(C(=O)N3CCCCCC3)c2)C1` (centres undefined), 871 s; to `Cc1noc2nc(C)n(CC(=O)Nc3ccccc3Br)c(=O)c12`, 766 s.

Molecule `COc1ncccc1CNC(=O)c1ccc(C)nc1` returned an RP-LC retention time of 562 s. As for `O=C(NCCN1CCc2ccccc2C1)C1CCCN(c2ncnc3c2nc2n3CCCCC2)C1` (centres undefined), the RP-LC retention time was found to be 622 s. With `CC(C)(C)NC(=O)c1ccc(-n2cc(CNC(=O)C3CC3)cn2)cc1` the figure was 711 s; with `CN(CC(=O)N1CCN(c2ccccc2)CC1)S(=O)(=O)c1ccc2c(c1)CCCC(=O)N2`, 737 s.

For `CCC(C)(C)NS(=O)(=O)c1cc(-c2nc(C)c(C(=O)N3CCCC3)s2)n(C)c1`, the RP-LC retention time amounted to 838 s. Turning to `Cc1cc(C(F)(F)F)nn1CC(=O)N1CCc2nn(C)c(=O)n2CC1`, the RP-LC retention time was 659 s. The molecule `CN(C)c1ccc(-c2nc(-c3cn(Cc4ccc(F)cc4)nn3)no2)cc1` registered an RP-LC retention time of 1010 s. As for `COC(=O)c1ccccc1NC(=O)CSc1cc(-n2nc(C)cc2C)ncn1`, the RP-LC retention time was 1130 s. Molecule `Cc1cccc(-c2noc(CN3C(=O)COc4ccc(Cl)cc43)n2)c1` showed an RP-LC retention time of 1160 s. With `COc1ccccc1-c1coc2cc(OC(=O)c3cccc([N+](=O)[O-])c3)ccc2c1=O` the figure was 1010 s; with `Cc1nn(C)c(C)c1CNC(=O)c1ccc2nc(Cc3ccccc3)oc2c1`, 714 s. With `O=C(Nc1ccc2c(c1)OCO2)C1CCCN(c2nnc3ccc(Cl)cn23)C1` (centres undefined) the figure was 747 s; with `Cc1cc(C)n2c(Nc3ccccc3C)c(-c3ccc(O)cc3)nc2n1`, 907 s.
